According to patent US20210393662A1, “USE OF SGLT2 INHIBITORS TO TREAT PRIMARY SCLEROSING CHOLANGITIS” (AVOLYNT, priority 2018, published 2021):
“Also recorded” adds a separate entry of the source.

What was measured:
[1] = test system: TIA mice; experiment: TIA murine model of PSC, liver histology and survival after 7 weeks on 0.03% remogliflozin etabonate diet; assay type: in vivo, mouse; conditions: for periportal and biliary inflammation / proliferation of bile ductules: 0.03% in chow from 4 weeks of age
Text: The following Examples describe the utilization of a murine model of […] (“PSC”) to assess the effectiveness of a treatment regimen based on the oral administration of remogliflozin etabonate. The murine PSC model is based on mice that are deficient for the expression of tumor necrosis factor alpha (“TNFα”), interleukin 10 (“IL-10”), and activation-induced cytidine deaminase (“AICDA”). As the mice are deficient in TNF, IL-10, and AICDA, they are referred to, herein, as “TIA” mice.
Moreover, as AICDA is required for immunoglobulin (“Ig”) class switching, TIA mice lack IgG and IgA, a phenotype analogous to humans with hyper-IgM syndrome. Therefore, with the combination of AICDA deficiency with the risk factors associated with TNFα and IL-10 deficiencies, TIA mice also develop liver and biliary inflammation reminiscent of PSC symptoms in humans. Accordingly, the TIA model is useful for investigating mechanisms that act early in PSC pathogenesis, as well as treatments that can prevent progression to PSC.
Example 1. Orally-administered remogliflozin etabonate reduces inflammatory cell infiltration, bile ductular proliferation, and interface hepatitis in TIA mice. TIA mice were created by first breeding TNFα knock out (“KO”) C57BL/6 mice, (strain B6.129S-Tnf^tm1Gkl/J, stock #005540, Jackson Laboratories, Bar Harbor, Me.) with IL-10 KO mice (strain B10.129P2(B6)-IL10^tm1Cgn/J, Stock No. 002251, Jackson Laboratories) to produce a population of mice that were deficient in TNFα and IL-10. Because mice with a TNFα−/− and IL10−/− genotype spontaneously develop inflammatory bowel disease (“IBD”) (Hale 2012), a condition associated with poor breeding success (Nagy 2016), the mice needed for further breeding to generate an AICDA population, were generated by breeding offspring with a TNFα−/− and IL10+/− genotype with AICDA−/− mice, which were obtained from Dr. Tasuku Honjo (Muramatsu 2000)), to produce a population of TNFα−/−, IL10−/−, and AICDA+/−(“TI-hetA”) males and females. In turn, TI-hetA pairs were bred to generate populations that were 25% TIA mice, and 50% non-colitis-susceptible TI-hetA littermates that could be used as control populations. All populations were exposed to the same environment from birth. The mice were housed in polycarbonate micro-isolator cages, in individually ventilated racks, under barrier conditions that excluded all known pathogens, including Helicobacter pylori and Norovirus. Mice had ad libitum access to water, and to a standard diet (PicoLab Mouse Diet 20/5058, LabDiet, St. Louis, Mo., USA).
At four (4) weeks of age, TIA (40) and TI-hetA (22) mice were randomized into experimental groups that received either a standard diet (20 TIA and 12 het), or a standard diet formulated 0.03% remogliflozin etabonate (20 TIA and 10 het) (Avolynt Inc., USA). The mice were maintained on this diet for seven (7) weeks. Body weights were obtained three (3) times, weekly, to assess the general health of mice, and to track the development of inflammatory bowel disease (IBD). Glycosuria in the experimental groups was assessed by applying freshly voided urine directly to the glucose test patch on an Accutest® URS-10 urinary reagent test strips (Jant Pharmaceutical Corp., Encino, Calif., USA). Mice were humanely euthanized before reaching the experimental endpoint, of eleven (11) weeks of age, if they lost>15% body weight, or developed rectal prolapse.
To characterize biliary lesions in TIA mice at the end of the 7 week treatment period, liver tissue was obtained from the remogliflozin-treated, and untreated groups, for histologic examination. The excised liver tissue was fixed in Carnoy's fixative solution, and processed into paraffin blocks. The paraffin blocks were sectioned, and stained with Hematoxylin and eosin (H&E) for pathologic analysis. The H&E-stained sections were scored by an American Board of Pathology-certified pathologist. […]

[2] = Plasma pharmacokinetics after oral compressed IR tablet; assay type: in vivo
Text: Oral dosage forms according to the invention are typically tablets or capsules. Tablets can be obtained by direct compression of the mixed components of a dosage form, including an effective dosage amount of remogliflozin etabonate, and selected excipients, like cellulose derivatives, metacrylates, chitosan, carboxymethylstarch, or mixtures thereof. For example, a compressed tablet according to the invention, can be prepared by granulating a SGLT2 inhibitor with microcrystalline cellulose and croscarmellose sodium with a water and povidone solution. The resulting granules are dried, milled, and then blended with mannitol, microcrystalline cellulose, and croscarmellose. The blend is lubricated with magnesium stearate and compressed. […] Indeed, Tmax for an IR remogliflozin etabonate oral dosage form according to the invention occurs at 1 hour, or less, following ingestion of the dosage form by a subject.

[3] = TIA mice, H&E liver sections at 11 weeks, vs untreated
[4] = TIA mice, H&E liver sections at 11 weeks, vs untreated, listed as Remo

**Q.** Which results are given for `CCOC(=O)OC[C@H]1O[C@@H](Oc2nn(C(C)C)c(C)c2Cc2ccc(OC(C)C)cc2)[C@H](O)[C@@H](O)[C@@H]1O` [remogliflozin etabonate]?
**A.** number of TIA mice that required early euthanasia ([1]; Remo group versus control group): no statistical difference; early death ([1]; Remo group versus control group, not statistically significant): trend toward decreased early death; periportal and biliary inflammation [1, 3]: less inflammation; proliferation of bile ductules [1, 3]: reduces; also recorded: less proliferation; periportal and biliary inflammation [1, 4]: decrease; proliferation of bile ductules [1, 4]: decrease; inflammation at the interface between hepatic parenchyma and portal tracts (interface hepatitis) ([1]; TIA mice, 0.03% in diet for 7 weeks, H&E liver sections at 11 weeks, vs untreated): reduces; also recorded: less inflammation; development and progression of liver and biliary disease (PSC disease pathology) ([1]; TIA mice, 0.03% in diet for 7 weeks, vs standard diet): markedly less development and progression; also recorded: prevents the progression; inflammatory cell infiltration ([1]; TIA mice, orally administered): reduces; Tmax ([2]; IR remogliflozin etabonate oral dosage form, following ingestion): ≤ 1 h; remogliflozin plasma concentration (plasma clearance to) ([2]; compressed IR tablet, 350 mg remogliflozin etabonate, oral, after 3 hrs): 40 ng/mL; maximum remogliflozin plasma concentration (Cmax) ([2]; compressed IR tablet, 350 mg remogliflozin etabonate, oral, at 1 hr post-ingestion): 160 ng/mL
